The record followed here is US5340833A, “Urokinase inhibitors” (Eisai Co., Ltd., priority 1992, dated 1994).

Common to all, as to assay type: biochemical
Assay [1] addresses T1, human high molecular weight urokinase (Homo sapiens, UniProt P00749).
T1 construct: human high molecular weight urokinase; purchased American Diagnostica, Greenwich, Conn
In words: Urokinase Direct Assay. Conditions: inhibitor concentration of 1 mM; for residual urokinase activity at 1000 µM: read-out: uPA Direct: percentage of residual urokinase activity relative to inhibitor-free controls, heading: uPA Direct: percentage of residual urokinase activity relative to inhibitor-free controls. As to the method:
(i) A direct chromogenic assay in which urokinase cleaves a synthetic tripeptide p-nitroanilide (pNA) urokinase substrate.
Incubations were carried out at 37° C. for approximately 2 hours or until adequate yellow color developed. Color was quantitated by measuring absorbance at 405 nm (A405) using a Titertek Multiskan MCC/340 MK II microtiter plate spectrophotometer.

The target of another assay is T2, human plasmin (Homo sapiens, UniProt P00747).
T2 construct: plasmin, the potent general protease produced by cleavage of plasminogen by either urokinase or tPA; purchased American Diagnostica
T2 sequence (P00747 581-810 limits assumed): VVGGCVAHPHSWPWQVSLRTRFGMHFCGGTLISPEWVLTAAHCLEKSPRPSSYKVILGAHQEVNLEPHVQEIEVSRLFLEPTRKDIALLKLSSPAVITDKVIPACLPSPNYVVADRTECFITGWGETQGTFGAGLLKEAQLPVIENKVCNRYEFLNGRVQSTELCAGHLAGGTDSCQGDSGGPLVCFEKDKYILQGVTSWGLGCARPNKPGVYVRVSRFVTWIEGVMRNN
T2 sequence (P00747 97-580 limits assumed): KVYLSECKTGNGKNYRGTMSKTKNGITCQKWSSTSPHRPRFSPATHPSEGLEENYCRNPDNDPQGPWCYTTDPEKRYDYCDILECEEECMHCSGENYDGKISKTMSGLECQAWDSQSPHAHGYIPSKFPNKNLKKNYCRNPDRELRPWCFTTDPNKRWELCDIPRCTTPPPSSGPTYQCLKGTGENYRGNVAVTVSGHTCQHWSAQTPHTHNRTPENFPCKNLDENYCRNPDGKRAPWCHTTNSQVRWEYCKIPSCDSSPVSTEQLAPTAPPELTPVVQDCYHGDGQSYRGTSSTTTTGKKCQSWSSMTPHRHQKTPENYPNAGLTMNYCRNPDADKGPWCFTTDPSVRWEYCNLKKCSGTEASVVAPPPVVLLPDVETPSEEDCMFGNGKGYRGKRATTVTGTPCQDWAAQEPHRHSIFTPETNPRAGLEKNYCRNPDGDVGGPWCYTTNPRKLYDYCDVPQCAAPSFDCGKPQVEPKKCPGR
In words: Plasmin Assay. Conditions: read-out: PLASMIN IC50. The method, then:
(v) A chromogenic pNA assay for plasmin, the potent general protease produced by cleavage of plasminogen by either urokinase or tPA. Although urokinase initiates cellular invasiveness by generating plasmin, the additional importance of plasmin in tPA-mediated fibrinolysis dictates that plasmin itself should be free from inhibition by urokinase inhibitors designed as anti-invasiveness agents. […] All other assay conditions, as well as methods of color quantitation, were carried out as described above for the urokinase direct assay.

The next assay addresses T3, human two-chain tPA (Homo sapiens, UniProt P00750).
T3 construct: human two-chain tPA was substituted for urokinase; purchased American Diagnostica
In words: tPA Indirect (Plasminogen-Linked) Assay (tPA Direct Assay result where lower). Conditions: tPA Indirect Plasminogen-Linked Assay; in rare cases direct assay result if lower; read-out: tPA IC50. The source says: (iv) Both direct and plasminogen-linked pNA assays for tPA, the other mammalian plasminogen activator and the key initiator of blood clot dissolution or fibrinolysis. Since urokinase and tPA share an absolute specificity for the same peptide bond in plasminogen, urokinase inhibitors designed to block cellular invasiveness must be highly specific for urokinase over tPA in order to avoid serious thrombotic side effects secondary to undesired blockage of normal fibrinolysis. […] Spectrozyme tPA®, American Diagnostica) was substituted for urokinase substrate.

Structures can show the parent of a compound that is named as a salt.

T3 sequence (P00750 311-562 limits assumed): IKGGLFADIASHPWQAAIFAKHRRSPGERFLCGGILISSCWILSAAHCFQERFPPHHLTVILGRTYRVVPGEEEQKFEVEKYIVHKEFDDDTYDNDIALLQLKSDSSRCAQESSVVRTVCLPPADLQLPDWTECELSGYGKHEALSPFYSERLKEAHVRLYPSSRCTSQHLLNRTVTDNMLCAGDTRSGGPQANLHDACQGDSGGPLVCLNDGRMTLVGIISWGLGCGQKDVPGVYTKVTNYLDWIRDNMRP
T3 sequence (P00750 36-310 limits assumed): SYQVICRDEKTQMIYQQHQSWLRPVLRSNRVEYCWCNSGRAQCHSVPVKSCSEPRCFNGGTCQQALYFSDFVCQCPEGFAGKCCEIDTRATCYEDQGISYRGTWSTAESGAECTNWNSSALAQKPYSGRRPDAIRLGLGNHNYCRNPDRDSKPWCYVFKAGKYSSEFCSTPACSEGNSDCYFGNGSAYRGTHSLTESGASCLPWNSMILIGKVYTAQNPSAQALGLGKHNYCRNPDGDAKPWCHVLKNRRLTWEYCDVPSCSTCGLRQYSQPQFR

For the molecule “4-(7-Amidino-E-hept-1-enyl)benzo[b]thiophene-2-carboxamidine bishydrochloride [Compound 33]”, the “uPA Direct: percentage of residual urokinase activity relative to inhibitor-free controls” value in assay [1] worked out at 1.3%.

Turning to `CCC(C)Cc1cccc2sc(C(=N)N)cc12` (racemic) [Compound 11, 4-([R/S]-2-Methylbutyl)benzo[b]thiophene-2-carboxamidine hydrochloride], the residual urokinase activity at 1000 µM in assay [1] was found to be 2.3%. On the same count and under the same terms, under `N=C(N)c1cc2c(C3CCCO3)cccc2s1` (racemic) [Compound 61, 4-([R,S]-Tetrahydrofuran-2-yl)benzo[b]thiophene-2-carboxamidine hydrochloride] stands 0.6%; under `CCC(C)Cc1ccc2sc(C(=N)N)cc2c1` (racemic) [Compound 109, 5-([R/S]-2-Methylbutyl)benzo[b]thiophene-2-carboxamidine hydrochloride], 6.6%. `N=C(N)c1cc2c(F)cccc2s1` [Compound 2, 4-Fluorobenzo[b]thiophene-2-carboxamidine hydrochloride]: the residual urokinase activity at 1000 µM in assay [1] was 7.2%. The same measure, in the same setting: under `N=C(N)c1cc2c(Cl)cccc2s1` [Compound 3, 4-Chlorobenzo[b]thiophene-2-carboxamidine hydrochloride] stands 3%; under `N=C(N)c1cc2c(Br)cccc2s1` [Compound 4, 4-Bromobenzo[b]thiophene-2-carboxamidine hydrochloride], 0.8%.

In the case of `Cc1cccc2sc(C(=N)N)cc12` [Compound 6, 4-Methylbenzo[b]thiophene-2-carboxamidine hydrochloride], the IC50 on human plasmin was found to be 881 µM; at human two-chain tPA, 478 µM.

Turning to `CC(C)c1cccc2sc(C(=N)N)cc12` [Compound 8, 4-(1-Methylethyl)benzo[b]thiophene-2-carboxamidine hydrochloride], the residual urokinase activity at 1000 µM in assay [1] stood at 0.9%. Regarding `N=C(N)c1cc2c(CCC3CC3)cccc2s1` [Compound 14, 4-(2-Cyclopropylethyl)benzo[b]thiophene-2-carboxamidine hydrochloride], the residual urokinase activity at 1000 µM in assay [1] was found to be 0.54%. On the same count and under the same terms, in the case of `N=C(N)c1cc2c(CCc3ccccc3)cccc2s1` [Compound 15, 4-(2-Phenylethyl)benzo[b]thiophene-2-carboxamidine hydrochloride] it was 0.35%; in that of `CC(c1ccccc1)c1cccc2sc(C(=N)N)cc12` (stereo not drawn) [Compound 16, 4-(1-Phenylethyl)benzo[b]thiophene-2-carboxamidine hydrochloride], 1.4%. Still for that read-out and setting: under `C=C(C)c1cccc2sc(C(=N)N)cc12` [Compound 18, 4-(1-Methylethenyl)benzo[b]thiophene-2-carboxamidine hydrochloride] stands 1.3%. Same read-out and setting: under `CCC=Cc1cccc2sc(C(=N)N)cc12` [Compound 20, 4-(E/Z-But-1-enyl)benzo[b]thiophene-2-carboxamidine hydrochloride] stands 0.8%.

Take `CCC(C)=Cc1cccc2sc(C(=N)N)cc12` [Compound 21, 4-(E/Z-2-Methylbut-1-enyl)benzo[b]thiophene-2-carboxamidine hydrochloride]: in assay [1], the residual urokinase activity at 1000 µM came to 1.1%. Still for that read-out and setting: in the case of `CCC(/C=C/c1cccc2sc(C(=N)N)cc12)CC` [Compound 28, 4-(E-3-ethylpent-1-enyl)benzo[b]thiophene-2-carboxamidine hydrochloride] it was 0.46%; in that of `CCCCCCCC/C=C/c1cccc2sc(C(=N)N)cc12` [Compound 31, 4-(E-Dec-1-enyl)benzo[b]thiophene-2-carboxamidine hydrochloride], 5.2%; in that of `N=C(N)c1cc2c(/C=C/CCCO)cccc2s1` [Compound 32, 4-(E-5-Hydroxypent-1-enyl)benzo[b]thiophene-2-carboxamidine hydrochloride], 0.67%. On the same count and under the same terms, in the case of `N=C(N)c1cc2c(C=CC3CC3)cccc2s1` [Compound 34, 4-(E/Z-2-Cyclopropylethenyl)benzo[b]thiophene-2-carboxamidine. hydrochloride] it was 0.46%; in that of `N=C(N)c1cc2c(C=C(Br)Br)cccc2s1` [Compound 38, 4-(2,2-Dibromoethenyl)benzo[b]thiophene-2-carboxamidine hydrochloride], 4.8%. The same measure, in the same setting: under `CC(C)(O)C#Cc1cccc2sc(C(=N)N)cc12` [Compound 42, 4-(3-Hydroxy-3-methylbut-1-ynyl)benzo[b]thiophene-2-carboxamidine hydrochloride] stands 0.6%; under `COc1ccc(-c2cccc3sc(C(=N)N)cc23)cc1` [Compound 45, 4-(4-Methoxyphenyl)benzo[b]thiophene-2-carboxamidine hydrochloride], 6%. Consider `N=C(N)c1cc2c(-c3ccc([N+](=O)[O-])cc3)cccc2s1` [Compound 46, 4-(4-Nitrophenyl)benzo[b]thiophene-2-carboxamidine hydrochloride], for which the residual urokinase activity at 1000 µM in assay [1] came to 1%.

With `N=C(N)c1ccc(-c2cccc3sc(C(=N)N)cc23)cc1` [Compound 47, 4-(4-Carboxamidinophenyl)benzo[b]thiophene-2-carboxamidine bis-hydrochloride], the residual urokinase activity at 1000 µM in assay [1] worked out at 7.6%. For `N=C(N)c1cc2c(-c3cccc4sc(C(=N)N)cc34)cccc2s1` [Compound 52, Bis-(2-carboxamidinobenzo[b]thien-4-yl) bis-hydrochloride], the residual urokinase activity at 1000 µM in assay [1] was determined as 2.7%. With `N=C(N)c1cc2c(C(F)(F)F)cccc2s1` [Compound 54, 4-(Trifluoromethyl)benzo[b]thiophene-2-carboxamidine hydrochloride], the residual urokinase activity at 1000 µM in assay [1] stood at 2.4%. `N=C(N)c1cc2c(C=O)cccc2s1` [Compound 55, 4-Formylbenzo[b]thiophene-2-carboxamidine hydrochloride]: the residual urokinase activity at 1000 µM in assay [1] stood at 4.8%. Same read-out and setting: in the case of `COc1cccc2sc(C(=N)N)cc12` [Compound 57, 4-Methoxybenzo[b]thiophene-2-carboxamidine hydrochloride] it was 12%; in that of `C=CCSc1cccc2sc(C(=N)N)cc12` [Compound 59, 4-(Prop-2-en-1-ylthio)benzo[b]thiophene-2-carboxamidine hydrochloride], 1.1%; in that of `N=C(N)c1cc2c(SCc3ccccc3)cccc2s1` [Compound 60, 4-(Benzylthio)benzo[b]thiophene-2-carboxamidine hydrochloride], 1.3%. Still for that read-out and setting: under `N=C(N)c1cc2c(N3CCOCC3)cccc2s1` [Compound 62, 4-(1-Morpholino)benzo[b]thiophene-2-carboxamidine hydrochloride] stands 3.6%; under `N=C(N)c1cc2c(C#Cc3ccccc3)cccc2s1` [Compound 76, 4-(Phenylethynyl)benzo[b]thiophene-2-carboxamidine hydrochloride], 1.1%; under `N=C(N)c1cc2c(-c3ccc(-c4ccc5c(c4)OCO5)o3)cccc2s1` [Compound 79, 4-[5-(Benzo-1,3-dioxolan-5-yl)fur-2-yl]benzo[b]thiophene-2-carboxamidine hydrochloride], 1.5%. On the same count and under the same terms, in the case of `N=C(N)c1cc2cc(F)ccc2s1` [Compound 101, 5-Fluorobenzo[b]thiophene-2-carboxamidine hydrochloride] it was 12.7%; in that of `N=C(N)c1cc2cc(Cl)ccc2s1` [Compound 102, 5-Chlorobenzo[b]thiophene-2-carboxamidine hydrochloride], 2.9%.

`Cc1ccc2sc(C(=N)N)cc2c1` [Compound 105, 5-Methylbenzo[b]thiophene-2-carboxamidine hydrochloride]: the residual urokinase activity at 1000 µM in assay [1] came to 3.4%.

On to `CCc1ccc2sc(C(=N)N)cc2c1` [Compound 106, 5 -Ethylbenzo[b]thiophene-2-carboxamidine hydrochloride], for which the residual urokinase activity at 1000 µM in assay [1] was found to be 3.6%. Still for that read-out and setting: under `CCCc1ccc2sc(C(=N)N)cc2c1` [Compound 107, 5-Propylbenzo[b]thiophene-2-carboxamidine hydrochloride] stands 2.6%; under `CCCCc1ccc2sc(C(=N)N)cc2c1` [Compound 108, 5-Butylbenzo[b]thiophene-2-carboxamidine hydrochloride], 3.4%. Still for that read-out and setting: under `CC(C)CCc1ccc2sc(C(=N)N)cc2c1` [Compound 110, 5-(3-Methylbutyl)benzo[b]thiophene-2-carboxamidine hydrochloride] stands 4.2%; under `N=C(N)c1cc2cc(CCC3CC3)ccc2s1` [Compound 112, 5-(2-Cyclopropylethyl)benzo[b]thiophene-2-carboxamidine hydrochloride], 3.3%.
